Measurements from ChEMBL document CHEMBL3588788, “Structure-activity relationship of hybrids of Cinchona alkaloids and bile acids with in vitro antiplasmodial and antitrypanosomal activities” (Eur J Med Chem, 2015).

Tests used:
Plasmodium falciparum [1] = test: Potency index, ratio of IC50 for CND to IC50 for test compound against Plasmodium falciparum 3D7 by parasite lactate dehydrogenase assay; format: functional
[2] = Cytotoxicity against human WI38 cells by MTT assay; format: cell-based, WI-38; details: Homo sapiens, WI-38; read-out: IC50
[3] = tested on: Trypanosoma brucei brucei; test: Potency index, ratio of IC50 for CND to IC50 for test compound against Trypanosoma brucei brucei Lister 427 bloodstream forms by microtiter plate based assay; format: functional
[4] = tested on: Trypanosoma brucei brucei; test: Antitrypanosomal activity against Trypanosoma brucei brucei Lister 427 bloodstream forms by microtiter plate based assay; format: functional, organism-based
[5] = Selectivity index, ratio of IC50 against human WI38 cells to IC50 for Plasmodium falciparum 3D7; format: toxicity, cell-based, WI-38; details: read-out: Ratio IC50
Plasmodium falciparum [6] = test: Antiplasmodial activity against Plasmodium falciparum 3D7 assessed as reduction in parasite viability by parasite lactate dehydrogenase assay; format: functional, organism-based
in vitro = details: human, WI38 cells
Description: Selectivity index, ratio of IC50 against human WI38 cells to IC50 for Trypanosoma brucei brucei Lister 427 bloodstream forms

[7] = tested on: Trypanosoma brucei brucei; test: Potency index, ratio of IC50 for CN to IC50 for test compound against Trypanosoma brucei brucei Lister 427 bloodstream forms by microtiter plate based assay; format: functional
Plasmodium falciparum [8] = test: Potency index, ratio of IC50 for CN to IC50 for test compound against Plasmodium falciparum 3D7 by parasite lactate dehydrogenase assay; format: functional

SMILES | Ratio IC50 (Plasmodium falciparum [1]) | IC50 [2] | Ratio IC50 [3] | IC50 [4] | selectivity ratio [5] | IC50 (Plasmodium falciparum [6]) | selectivity ratio (in vitro) | Ratio IC50 [7] | Ratio IC50 (Plasmodium falciparum [8])
C=C[C@H]1CN2CC[C@H]1C[C@H]2[C@H](O)c1cc(CC[C@@H](C)[C@H]2CC[C@H]3[C@@H]4CC[C@@H]5C[C@H](OC(C)=O)CC[C@]5(C)[C@H]4C[C@H](OC(C)=O)[C@]23C)nc2ccccc12 | 12.5 | 4060 nM | 108.2 | 570 nM | 53 | 77.2 nM | 7.1 |  | 
C=C[C@H]1CN2CC[C@H]1C[C@H]2[C@H](O)c1cc(CC[C@@H](C)[C@H]2CC[C@H]3[C@@H]4[C@H](OC(C)=O)C[C@@H]5C[C@H](OC(C)=O)CC[C@]5(C)[C@H]4C[C@H](OC(C)=O)[C@]23C)nc2ccccc12 | 23.7 | 6700 nM | 42.4 | 1470 nM | 165 | 40.6 nM | 4.6 |  | 
C=C[C@H]1CN2CC[C@H]1C[C@H]2[C@H](O)c1cc(CC[C@@H](C)[C@H]2CC[C@H]3[C@@H]4C[C@H](O)[C@@H]5C[C@H](O)CC[C@]5(C)[C@H]4CC[C@]23C)nc2ccccc12 | 10.5 | 3280 nM | 116.7 | 530 nM | 36 | 92.1 nM | 6.2 |  | 
C=C[C@H]1CN2CC[C@H]1C[C@H]2[C@H](O)c1cc(CC[C@@H](C)[C@H]2CC[C@H]3[C@@H]4CC[C@@H]5C[C@H](O)CC[C@]5(C)[C@H]4C[C@H](O)[C@]23C)nc2ccccc12 | 3 | 5640 nM | 94.8 | 660 nM | 18 | 320 nM | 8.6 |  | 
C=C[C@H]1CN2CC[C@H]1C[C@H]2[C@H](O)c1cc(CC[C@@H](C)[C@H]2CC[C@H]3[C@@H]4[C@H](O)[C@H](O)[C@@H]5C[C@H](O)CC[C@]5(C)[C@H]4CC[C@]23C)nc2ccccc12 | 2.5 | 5320 nM | 100.5 | 620 nM | 14 | 392 nM | 8.6 |  | 
C=C[C@H]1CN2CC[C@H]1C[C@H]2[C@H](O)c1cc(CC[C@@H](C)[C@H]2CC[C@H]3[C@@H]4C[C@H](OC(C)=O)[C@@H]5C[C@H](OC(C)=O)CC[C@]5(C)[C@H]4CC[C@]23C)nc2ccccc12 | 8.3 | 4160 nM | 52.5 | 1180 nM | 36 | 115 nM | 3.5 |  | 
C=C[C@H]1CN2CC[C@H]1C[C@H]2[C@H](O)c1cc(CC[C@@H](C)[C@H]2CC[C@H]3[C@@H]4[C@H](OC(C)=O)[C@H](OC(C)=O)[C@@H]5C[C@H](OC(C)=O)CC[C@]5(C)[C@H]4CC[C@]23C)nc2ccccc12 | 26.6 | 3750 nM | 119.8 | 520 nM | 104 | 36.1 nM | 7.2 |  | 
C=C[C@H]1CN2CC[C@H]1C[C@@H]2[C@@H](O)c1cc(CC[C@@H](C)[C@H]2CC[C@H]3[C@@H]4C[C@H](OC(C)=O)[C@@H]5C[C@H](OC(C)=O)CC[C@]5(C)[C@H]4CC[C@]23C)nc2ccccc12 |  | 4280 nM |  | 640 nM | 23 | 186 nM | 6.6 | 105.7 | 1.6
C=C[C@H]1CN2CC[C@H]1C[C@@H]2[C@@H](O)c1cc(CC[C@@H](C)[C@H]2CC[C@H]3[C@@H]4[C@H](OC(C)=O)C[C@@H]5C[C@H](OC(C)=O)CC[C@]5(C)[C@H]4C[C@H](OC(C)=O)[C@]23C)nc2ccccc12 |  | 5100 nM |  | 550 nM | 97 | 52.8 nM | 9.3 | 123.6 | 5.5
C=C[C@H]1CN2CC[C@H]1C[C@H]2[C@H](O)c1cc(CC[C@@H](C)[C@H]2CC[C@H]3[C@@H]4[C@H](O)C[C@@H]5C[C@H](O)CC[C@]5(C)[C@H]4C[C@H](O)[C@]23C)nc2ccccc12 | 0.5 | 8090 nM | 35.6 | 1750 nM | 4 | 1800 nM | 4.6 |  | 
